Like-named read-outs stand apart in the source and are kept apart here.
Experiments:
A2 Receptor = target: T1, A2 Receptor (Rattus norvegicus, UniProt P30543); experiment: Adenosine A2 receptor binding test (inhibition of 3H-CGS 21680 binding); conditions: rat corpus striatum, 3H-CGS 21680 4.0 nM
T1 construct: from tissue; host or cells: rat corpus striatum (membrane suspension)
Procedure: Adenosine Receptor Antagonistic Activity (Adenosine A2 Receptor Binding Test)
The test was conducted according to the method of Bruns et al. [Mol. Pharmacol., 29, 331 (1986)] with slight modification.
Corpus striatum of a rat was suspended in ice-cooled 50 mM Tris (hydroxymethyl) aminomethane hydrochloride (Tris HCl) buffer (pH 7.7) by using Polytron homogenizer (manufactured by Kinematica Co.). The suspension was centrifuged (50,000×g, 10 minutes), and the precipitate was suspended again in the same amount of 50 mM Tris HCl buffer. The suspension was centrifuged under the same conditions, and the final precipitate was suspended in 50 mM Tris HCl buffer [containing 10 mM magnesium chloride and 0.02 unit/mg tissue of adenosine deaminase (manufactured by Sigma Co.)] to give a tissue concentration of 5 mg (wet weight)/ml.
To 1 ml of the tissue suspension thus prepared were added 50 μl of tritium labeled CGS 21680 {^3 H-2-[p-(2-carboxyethyl) phenethylamino]-5'-(N-ethylcarboxamide)-adenosine: 40 Ci/mmol; manufactured by New England Nuclear Co. [J. Pharmacol. Exp. Ther., 251, 888 (1989)]} (final concentration: 4.0 nM) and 50 μl of a test compound. The resulting mixture was allowed to stand at 25° C. for 120 minutes and then rapidly filtered by suction through a glass fiber filter (GF/C; manufactured by Whatman Co.). The filter was immediately washed three times with 5 ml each of ice-cooled 50 mM Tris HCl buffer, and transferred to a vial, and a scintillator (EX-H; manufactured by Wako Pure Chemical Industries, Ltd.) was added thereto. The radioactivity on the filter was determined with a liquid scintillation counter (manufactured by Packard Instrument Co.).
The inhibition rate of the test compound against the binding of A2 receptors (^3 H-CGS 21680 binding) was calculated by the following equation: [formula] [Notes]B: Amount of the binding in the presence of the test compound.
T: Amount of the total binding.
N: Amount of the nonspecific binding.
Amount of the total binding means the amount of radioactivity of ^3 H-CGS 21680 bound in the absence of the test compound. Amount of the nonspecific binding means the amount of radioactivity of ^3 H-CGS 21680 bound in the presence of 100 μM cyclopentyladenosine (CPA; manufactured by Sigma Co.). Amount of the binding in the presence of the test compound means the amount of radioactivity of ^3 H-CGS 21680 bound in the presence of the test compound at various levels of concentrations.

[1] = Effect on haloperidol-induced catalepsy; format: in vivo, male ddY mice; conditions: 10 mg/kg po; for Total Score (catalepsy): 1 h after compound; for inhibition in vivo at 10 mg/kg: Mus musculus, 1 h, decrease in total score vs control group, read-out: Remission Rate (%)
Procedure: Effect on Haloperidol-Induced Catalepsy
Parkinson's disease is a clinical syndrome caused by degeneration and cell death of nigrostriatal dopaminergic neurons. Administration of haloperidol (dopamine D1 /D2 antagonist) induces catalepsy resulting from the blockade of postsynaptic dopamine D2 receptors.
The experiment was carried out using several groups of 5-week-old male ddY mice (weighing 22 to 24 g, Japan SLC), each group consisting of 5 or 10 mice. Haloperidol (manufactured by Janssen Pharmaceutica) was suspended in 0.3% CMC and imtraperitoneally administered to each mouse at a dose of 1.0 mg/kg. A test compound was suspended in injectable distilled water (manufactured by Otsuka Pharmaceutical Co., Ltd.) after adding Tween 80 [polyoxyethylene (20) sorbitan monooleate]. L-DOPA (manufactured by Kyowa Hakko Kogyo Co., Ltd.) and benserazide hydrochloride (manufactured by Kyowa Hakko Kogyo Co., Ltd.) were suspended in 0.3% CMC. One hour after the intraperitoneal administration of haloperidol, the suspension containing the test compound or the suspension containing no test compound [injectable distilled water (manufactured by Otsuka Pharmaceutical Co., Ltd.) containing Tween 80; control] were orally administered to the separate groups of the mice (0.1 ml per 10 g of body weight). One hour after the administration of the test compound, the forelimbs of each mouse and subsequently the hindlimbs of the same mouse were placed on a 4.5 cm-high, 1.0 cm-wide bar and catalepsy was estimated. All of the test compounds were orally administered at a dose of 10 mg/kg, and L-DOPA (100 mg/kg) and benserazide (25 mg/kg) were intraperitoneally administered together as a control. The catalepsy score and the standard of judgment are shown below. […]
Score Duration of the category
0: forelimbs less than 5 seconds
hindlimbs less than 5 seconds
1: forelimbs from 5 (inclusive)
to 10 (exclusive) seconds
2: forelimbs 10 seconds or more
3: (1) forelimbs from 5 (inclusive)
hindlimbs from 5 (inclusive)
or (2) forelimbs less than 5 seconds
hindlimbs 5 seconds or more
4: (1) forelimbs 10 seconds or more
or (2) forelimbs from 5 (inclusive)
hindlimbs 10 seconds or more
5: forelimbs 10 seconds or more
The effect of the compounds was evaluated by the total of the catalepsy scores of 5 or 10 mice in each group (25 or 50 points at the maximum). The groups wherein the total score was not more than 20 or 40 points were estimated to be effective. The number of the animals showing remission against catalepsy is the number of the mice for which the catalepsy score was not more than 4 points in 5 or 10 mice.

[2] = Effect on clonidine-induced aggressive behavior; format: in vivo, male ddY mice; conditions: 2.5 mg/kg, po, clonidine 20 mg/kg ip; for Number of the Biting Attacks (mean ± S.E.M.), Test Compound-Treated Group: 30 min count
Procedure: Effect on Clonidine-Induced Aggressive Behavior
The enhancement effect of the test compounds on the aggressive behavior induced by intraperitoneal administration of clonidine [Eur. J. Pharmacol., 29, 374 (1968)] was investigated.
The experiment was performed using several groups of male ddY mice weighing 20 to 25 g (Japan SLC), each group consisting of two mice. A test compound was suspended in injectable distilled water (manufactured by Otsuka Pharmaceutical Co., Ltd.) after adding Tween 80. Clonidine hydrochloride (manufactured by Sigma Co.) was dissolved in physiological saline solution (manufactured by Otsuka Pharmaceutical Co., Ltd.). The suspension containing the test compound and the suspension containing no test compound (control) were orally administered to the separate groups of the mice (0.1 ml per 10 g of body weight). Sixty minutes after the oral administration of the test compound, clonidine hydrochloride (20 mg/kg) was intraperitoneally administered. The number of biting attacks during the 30 minutes immediately after the clonidine treatment was counted. The effect of the compounds was evaluated by comparing the number of biting attacks of the test compound-administered groups with that of control groups (significance test: Student' t-test).

[3] = 5 mice (max 25 points; control 25)
[4] = out of 5 mice (score not more than 4)
[5] = out of 10 mice (score not more than 4)

T1 sequence (P30543 whole entry): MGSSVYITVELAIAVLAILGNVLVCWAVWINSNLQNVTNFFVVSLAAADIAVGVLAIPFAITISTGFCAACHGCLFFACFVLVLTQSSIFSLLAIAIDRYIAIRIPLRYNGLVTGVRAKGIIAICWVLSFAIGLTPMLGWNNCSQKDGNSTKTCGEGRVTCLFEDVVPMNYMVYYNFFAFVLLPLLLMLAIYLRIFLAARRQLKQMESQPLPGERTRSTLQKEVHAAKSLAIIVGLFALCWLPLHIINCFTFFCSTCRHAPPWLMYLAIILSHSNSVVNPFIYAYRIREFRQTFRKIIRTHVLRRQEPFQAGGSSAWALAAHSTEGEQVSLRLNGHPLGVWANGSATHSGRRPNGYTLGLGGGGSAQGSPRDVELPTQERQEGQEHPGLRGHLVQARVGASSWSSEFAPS

SMILES	A2 Receptor Inhibition Rate (%) (A2 Receptor; 10^-6 M)	A2 Receptor Inhibition Rate (%) (A2 Receptor; 10^-7 M)	other results
CCCn1c(=O)c2c(nc(/C=C/c3ccc(OC(C)=O)c(OC(C)=O)c3)n2C)n(CCC)c1=O [Compound 1, (E)-8-(3,4-Diacetoxystyryl)-7-methyl-1,3-dipropylxanthine]	93	89	
CCCn1c(=O)c2c(nc(/C=C/c3ccc(OC)c(OC(C)=O)c3)n2C)n(CCC)c1=O [Compound 3, (E)-8-(3-Acetoxy-4-methoxystyryl)-7-methyl-1,3-dipropylxanthine]	96	61	
CCCn1c(=O)c2c(nc(/C=C/c3ccc(OC(C)=O)c(OC)c3)n2C)n(CCC)c1=O [Compound 4, (E)-8-(4-Acetoxy-3-methoxystyryl)-7-methyl-1,3-dipropylxanthine]	98	94	Total Score (catalepsy) [1, 3]: 3; Number of Animals Showing Remission [1, 4]: 5; inhibition in vivo at 10 mg/kg ([1]; 5 mice): 88%; Ratio of Attacks: Test Compd.-Treated Group/Control Group [2]: 11.0; Number of the Biting Attacks (mean ± S.E.M.), Test Compound-Treated Group [2]: 47.4 ± 11.1
CCn1c(=O)c2c(nc(/C=C/c3ccc(OC(=O)c4ccccc4)c(OC)c3)n2C)n(CC)c1=O [Compound 7, (E)-8-(4-Benzoyloxy-3-methoxystyryl)-1,3-diethyl-7-methylxanthine]	97	87	Total Score (catalepsy) [1, 3]: 14; Number of Animals Showing Remission [1, 4]: 3; inhibition in vivo at 10 mg/kg ([1]; 5 mice): 44%
CCCn1c(=O)c2c(nc(/C=C/c3cc(OC(C)=O)cc(OC(C)=O)c3)n2C)n(CCC)c1=O [Compound 9, (E)-8-(3,5-Diacetoxystyryl)-7-methyl-1,3-dipropylxanthine]	96	88	
CCn1c(=O)c2c(nc(/C=C/c3ccc(OC(=O)C(C)(C)C)c(OC)c3)n2C)n(CC)c1=O [Compound 13, (E)-1,3-Diethyl-8-(3-methoxy-4-pivaloyloxystyryl)-7-methylxanthine]			Total Score (catalepsy) ([1]; 10 mice (max 50 points)): 14; Number of Animals Showing Remission [1, 5]: 9; inhibition in vivo at 10 mg/kg ([1]; 10 mice): 72%; Ratio of Attacks: Test Compd.-Treated Group/Control Group [2]: 10.1; Number of the Biting Attacks (mean ± S.E.M.), Test Compound-Treated Group [2]: 24.3 ± 6.6
C=CCn1c(=O)c2c(nc(/C=C/c3ccc(OC(C)=O)c(OC)c3)n2C)n(CC=C)c1=O [Compound 15, (E)-8-(4-Acetoxy-3-methoxystyryl)-1,3-diallyl-7-methylxanthine]	91	85	
CCn1c(=O)c2c(nc(/C=C/c3ccc(OC)c(OC(C)=O)c3)n2C)n(CC)c1=O [Compound 16, (E)-8-(3-Acetoxy-4-methoxystyryl)-1,3-diethyl-7-methylxanthine]	96	81	
CCn1c(=O)c2c(nc(/C=C/c3cc(OC)c(OC(C)=O)c(OC)c3)n2C)n(CC)c1=O [Compound 17, (E)-8-(4-Acetoxy-3,5-dimethoxystyryl)-1,3-diethyl-7-methylxanthine]	97	80	Total Score (catalepsy) ([1]; 10 mice (max 50 points)): 30; Number of Animals Showing Remission [1, 5]: 7; inhibition in vivo at 10 mg/kg ([1]; 10 mice): 40%
CCn1c(=O)c2c(nc(/C=C/c3cc(OC)c(OC(=O)c4ccccc4)c(OC)c3)n2C)n(CC)c1=O [Compound 18, (E)-8-(4-Benzoyloxy-3,5-dimethoxystyryl)-1,3-diethyl-7-methylxanthine]	97	82	Total Score (catalepsy) ([1]; 10 mice (max 50 points)): 30; Number of Animals Showing Remission [1, 5]: 7; inhibition in vivo at 10 mg/kg ([1]; 10 mice): 40%
C=CCn1c(=O)c2c(nc(/C=C/c3cc(OC)c(OC(C)=O)c(OC)c3)n2C)n(CC=C)c1=O [Compound 19, (E)-8-(4-Acetoxy-3,5-dimethoxystyryl)-1,3-diallyl-7-methylxanthine]	96	91	
CCn1c(=O)c2c(nc(/C=C/c3cccc(OC(C)=O)c3)n2C)n(CC)c1=O [Compound 21, (E)-8-(3-Acetoxystyryl)-1,3-diethyl-7-methylxanthine]	96	81	
CCn1c(=O)c2c(nc(/C=C/c3cccc(OC(=O)c4ccccc4)c3)n2C)n(CC)c1=O [Compound 22, (E)-8-(3-Benzoyloxystyryl)-1,3-diethyl-7-methylxanthine]	99	92	
CCn1c(=O)c2c(nc(/C=C/c3cc(OC)ccc3OC(C)=O)n2C)n(CC)c1=O [Compound 23, (E)-8-(2-Acetoxy-5-methoxystyryl)-1,3-diethyl-7-methylxanthine]	101	90	
CCn1c(=O)c2c(nc(/C=C/c3cccc(OC)c3OC(C)=O)n2C)n(CC)c1=O [Compound 25, (E)-8-(2-Acetoxy-3-methoxystyryl)-1,3-diethyl-7-methylxanthine]	101	95	
CCn1c(=O)c2c(nc(/C=C/c3cccc(OC(C)=O)c3OC(C)=O)n2C)n(CC)c1=O [Compound 26, (E)-8-(2,3-Diacetoxystyryl)-1,3-diethyl-7-methylxanthine]	101	75	

Reference: US5703085A, “Xanthine derivatives” (Kyowa Hakko Kogyo Co., Ltd., priority 1994, dated 1997)
